# Data: paper PMC11994961, “In Vivo pharmacokinetic interactions of ribociclib with rivaroxaban and apixaban in rats: implications for increased drug exposure and dose adjustments” (Frontiers in Pharmacology, 2025)
# “Also recorded” adds a separate entry of the source. Read-outs that look alike come from different tables or passages of the source.
# Tests used:
# [1] = Pharmacokinetic study of ribociclib in rats, alone and after rivaroxaban or apixaban (UPLC-MS/MS plasma levels); type: in vivo, Sprague-Dawley rats; details: for Cmax / AUC(0-inf) / AUC(0-t) / Tmax / half-life / CL/F / MRT inf / MRT last / Vd/F: Sprague-Dawley, rat, plasma, 60 mg/kg; for CL/F: read-out: CLz/F (converted); for MRT inf: read-out: MRT0- ∞; for MRT last: read-out: MRT0-t; for Vd/F: read-out: Vz/F
# Method: Experimental animals were randomly divided into nine groups (n = 6, Table 1). Ribociclib was suspended in methylcellulose (MC), rivaroxaban was prepared in hydroxypropyl methylcellulose (HPMC), and apixaban was suspended in 5% DMSO in water. To achieve steady-state blood concentrations, a drug typically requires five to seven half-lives. Based on this principle, ribociclib was administered orally for eight consecutive days, while rivaroxaban and apixaban were administered orally for five consecutive days to ensure steady-state concentrations were reached before further analysis. Approximately 0.1 mL of blood was collected into heparinized tubes via the orbitalat specified time points before and after the final drug administration. […] Blood samples were centrifuged at 3,500 rpm for 10 min, and the supernatant was collected and stored at −80°C until processing for UPLC-MS/MS. Apixaban and rivaroxaban concentrations in plasma samples were determined using our previously established UPLC-MS/MS method ([Wang et al., 2023]). Ribociclib concentrations were quantified using an LC-30A UPLC system (Shimadzu, Kyoto, Japan) coupled with a Sciex Triple Quad 5500 tandem quadrupole mass spectrometer (AB Sciex, Framingham, MA, United States) equipped with an electrospray ionization interface. Chromatographic separation was performed using a Welch Boltimate column (2.1 mm × 100 mm, 2.7 μm) maintained at 40°C. The mobile phase was composed of water containing 0.1% formic acid (phase A) and acetonitrile (phase B). The flow rate was held constant at 0.3 mL/min. […] The injection volume was 1 μL. The mass spectrometer operated in positive ion mode and multiple reaction monitoring (MRM) mode for detection and quantification. The monitored transitions of precursors to product ions were as follows: 441.3→332.1 for ribociclib-d6 and 435.3.→322.1 for ribociclib (Figure 1). The mass spectrometer conditions, including delustering potential (DP) and collision energy (CE) of the compounds, are shown in Table 2. Other parameters of the mass spectrometer were as follows: ion source gas 160.0 psi; ion source gas 2,50.0 psi; curtain gas, 25.0 psi. The source temperature was 500°C and the ion spray voltage was 5,500 V. A 50 µL plasma sample was mixed with 5 µL of the IS working solution, followed by the addition of 150 µL of acetonitrile. The mixture was vortexed for 2 min and then centrifuged at 12,000 rpm for 10 min. Next, 70 µL of the supernatant was collected and mixed with 70 µL of 50% (v/v) of acetonitrile in water. The mixture was vortexed for 1 min, and then 1 µL was injected into the UPLC-MS/MS system for analysis. […] The area under the concentration–time curve (AUC), maximum plasma concentration (Cmax), time to maximum plasma concentration (Tmax), the time required to eliminate half of the plasma drug concentration (t1/2), clearance of drug plasma volume per unit time (CLz/F), apparent volume distribution (Vz/F), mean residence time (MRT) and the absorption rate constant (Ka) are all expressed as mean ± standard deviation (SD). SPSS 25.0 statistical software (SPSS Inc., Chicago, IL, United States) was applied to statistically analyze the mainpharmacokinetic parameters. Shapiro-Wilk test was used to assess whether the data were normally distributed, t test was used for parameters conforming to the normal distribution, and Mann-Whitney U test was used for parameters not conforming to the normal distribution. Statistical comparisons were conducted using a analysis of variance, t-test or nonparametric rank-sum test depending on the data type.
# [2] = system: Abcb1a (P-gp) mRNA in the intestines; assay: qRT-PCR mRNA expression in rat intestine after ribociclib; type: in vivo; details: rats, ribociclib continuously for 8 days
# From the text: (§1) qRT-PCR analysis was used to determine the mRNA levels of Cyp3a1(CYP3A4) in the liver and Abcb1a (P-gp), Cyp3a1(CYP3A4), Abcg2(BCRP) in the intestines. Total RNA was extracted from frozen liver and intestine samples using the TRNzol Universal reagent, following the manufacturer’s instructions. The Bio Tek Epoch (Bio Tek Instruments, Inc., Winooski, VT, United States) was used to quantify the purity and concentration of the total RNA, based on the ratio of the absorbance at 260 and 280 nm. The RNA samples, each containing 1 µg of material, were converted to complementary DNA (cDNA) using the FastKing RT Kit. The real-time PCR assays were performed using a two-step amplification protocol on the SLAN-96S Real-Time PCR system (Shanghai Hongshi Medical Technology Co., Ltd., Shanghai, China). […] was employed as an internal control, and the PCR cycling criteria were as follows: 95°C for 15 min, followed by 40 cycles of 95°C for 10 s and 60°C for 32 s.
# [3] = system: Abcg2(BCRP) mRNA in the intestines; assay: as above; type: in vivo; details: rats, ribociclib continuously for 8 days
# From the text: as §1
# [4] = system: Cyp3a1(CYP3A4) mRNA in the intestines; assay: as above; type: in vivo; details: rats, ribociclib continuously for 8 days
# From the text: as §1
# [5] = system: Cyp3a1(CYP3A4) mRNA in the liver; assay: qRT-PCR mRNA expression in rat liver after ribociclib; type: in vivo; details: rats, ribociclib continuously for 8 days
# From the text: as §1
# CYP3A4 = system: CYP3A4; set-up: method as in Sorf et al., 2018; details: in vitro; ref Sorf et al., 2018; read-out: half-maximal inhibitory concentration (IC50) against CYP3A4; cited from earlier work
# [6] = set-up: method as in Hindley et al., 2023; details: ref Hindley et al., 2023; cited from earlier work
# CYP3A4/5 = system: CYP3A4/5; set-up: method as in Mueck et al., 2013; details: ref Mueck et al., 2013; cited from earlier work
# CYP2J2 = system: CYP2J2; set-up: method as in Mueck et al., 2013; details: ref Mueck et al., 2013; cited from earlier work
# [7] = po, rats, RIBO 60 mg/kg after API 0.5 mg/kg for 5 days
# [8] = po, rats, RIBO 60 mg/kg after RIVA 2 mg/kg for 5 days
# [9] = po, rats, oral RIBO 60 mg/kg alone
smiles,measurement,setting,value
"CN(C)C(=O)c1cc2cnc(Nc3ccc(N4CCNCC4)cn3)nc2n1C1CCCC1 [RIBO, ribociclib]",Cmax,"[1]; oral, rats administered 60 mg/kg",~1500 ng/mL
same,AUC(0-inf),[1]; [7],25200 ng·h/mL
same,AUC(0-t),[1]; [7],24500 ng·h/mL
same,Cmax,[1]; [7],2080 ± 400 ng/mL
same,Tmax,[1]; [7],4.33 ± 1.37 h
same,half-life,[1]; [7],495 ± 172 min
same,CL/F,[1]; [7],40.2 mL/min/kg
same,MRT inf,[1]; [7],11 ± 2.83 h
same,MRT last,[1]; [7],9.71 ± 1.15 h
same,Vd/F,[1]; [7],28.3 ± 8.33 L/kg
same,AUC(0-inf),[1]; [8],21500 ng·h/mL
same,AUC(0-t),[1]; [8],21400 ng·h/mL
same,Cmax,[1]; [8],1600 ng/mL
same,Tmax,[1]; [8],4.33 ± 0.52 h
same,half-life,[1]; [8],368 ± 84.6 min
same,CL/F,[1]; [8],47.2 mL/min/kg
same,MRT inf,[1]; [8],10.1 ± 2.16 h
same,MRT last,[1]; [8],9.77 ± 1.74 h
same,Vd/F,[1]; [8],24.7 ± 4.85 L/kg
same,AUC(0-inf),[1]; [9],20800 ng·h/mL
same,AUC(0-t),[1]; [9],20300 ng·h/mL
same,Cmax,[1]; [9],1620 ng/mL
same,Tmax,[1]; [9],2.4 ± 0.89 h
same,half-life,[1]; [9],472 ± 250 min
same,CL/F,[1]; [9],49.3 mL/min/kg
same,MRT inf,[1]; [9],11.8 ± 4.35 h
same,MRT last,[1]; [9],10.1 ± 1.79 h
same,Vd/F,[1]; [9],35.5 ± 26.3 L/kg
same,changes in the pharmacokinetic parameters,"[1]; rats, RIBO 60 mg/kg after multiple doses of apixaban vs alone",no significant changes; also recorded: did not alter
same,changes in the pharmacokinetic parameters,"[1]; rats, RIBO 60 mg/kg after multiple doses of rivaroxaban vs alone",no significant changes; also recorded: did not alter
same,slight increase in Cmax,"[1]; rats, RIBO 60 mg/kg, apixaban group vs alone",not statistically significant
same,mRNA expression of Abcb1a in the intestine,[2],no significant changes
same,inhibition rate of intestinal Abcg2 mRNA expression,[3],45.0%
same,inhibition rate of intestinal Cyp3a1 mRNA expression,[4],82.6%
same,mRNA expression of Cyp3a1 in the liver,[5],no significant changes
"O=C(NC[C@H]1CN(c2ccc(N3CCOCC3=O)cc2)C(=O)O1)c1ccc(Cl)s1 [RIVA, rivaroxaban]",plasma protein binding,[6],approximately 95%
same,share of total elimination by CYP3A4/5,CYP3A4/5,approximately 18%
same,share of total elimination by CYP2J2,CYP2J2,approximately 14%
